Measured values: US5157052A, “Method for inhibiting IgE production” (priority 1990, dated 1992)
“Also recorded” adds a separate entry of the source.

Assays:
[1] = test system: leukocyte membrane proteins; assay: Cell surface density or distribution of leukocyte membrane proteins, overall; type: in vivo, mouse (Balb/c female); conditions: unstimulated mice, 20 μg
IgM = assay: Serum IgM in anti-IgD stimulated mice (two site sandwich ELISA, Assay E); type: in vivo, mouse (Balb/c female); conditions: 20 μg IP 3x daily days 3 and 4
Description: Sera from mice treated with compounds in accordance with the method of the invention are analyzed for levels of IgG1, IgG2a, IgG3, and IgM.
Measurement of mouse IgM by a two site sandwich ELISA is performed in substantial accordance with the teachings of Assay B except for the following changes. About 250 ng of rabbit anti-mouse IgM (Zymed Laboratories) is used to coat a NuncImmulon 96 well plate. The IgM standard is purchased from Southern Biotech. The standard curve is linear between 8-500 ng/ml. Serum containing IgM is diluted 1/4,000 to 1/60,000. About a 1/10,000 dilution of goat anti mouse IgM conjugated to horse radish peroxidase is used as a combined primary antibody and developing reagent. 100 μl is added to each well and the plate is incubated at about 4° C. overnight. The colorimetric substrate is prepared and used as described in Assay A.
Two groups of 4 Balb/c female mice per group are injected with both 100 μg FF1-4D5 antibody and 100 μg H∂Al antibody. On day 3 and 4 the mice are injected with PBS (Group A) or 20 μg (±) methyl 11α,16-dihydroxy-16-ethyl-9-oxoprosta-5Z,13E-dien-1-oate (Group B) at 7 a.m., 1 p.m. and 7 p.m. in substantial accordance with the teaching of Example 13. On day -1, 7, 8, 9 and 11, 50-100 μl of serum is recovered and analyzed for IgE by Assay A and for IgM by Assay E. The results are shown in Table 6.
Three groups of 5 Balb/c female mice per group are injected with both 100 μg FF1-4D5 antibody and 100 μg H∂A1 antibody on day 0. Group A is a control with no further treatment. On day 3 and 4, the mice are injected with 20 μg (±) methyl 11α,16-dihydroxy-4,4,16-trimethyl-9-oxoprosta-13E-en-1-oate (Group B) or 20 μg (±) methyl 11α,16-dihydroxy-16-methyl-9-oxoprosta-3,5Z,13E-trien-1-oate (Group C) as in Example 13. On day -1 and 8, […] of serum is recovered and analyzed for IgE, IgG1, IgG2a, IgG3 and IgM by Assays A, B, C, D and E, respectively.

IgE [2] = assay: Serum IgE response induced by FF1-4D5 + H∂A1 anti-IgD antibodies (ELISA, Assay A / Assay F); type: in vivo, mouse (Balb/c female)
Description: Mouse hybridoma cells expressing either FF1-4D5 antibody or H∂A1 antibody are thawed, established in culture, and incubated in mice as ascite tumors. FF1-4D5 antibody is a mouse IgG2a monoclonal antibody of the b allotype that binds the Fd fragment of the ∂ chain of the a allotype IgD which activates β cells through antigen internalization and processing, promoting cognate interactions with antigen-specific T cells (D. K. Goroff et al., J. Immunol. 136: 2382 (1986)). H∂A1 antibody is a mouse IgG2b of the b allotype that binds the Fc fragment of the ∂ chain of the a allotype IgD which activates β cells through crosslinking IgD (I. M. Zitron and B. L. Clevinger, J. Exp. Med. 152: 1135 (1980)). Each antibody is purified from their respective ascites tumor fluid. […] Serum from the injected mice is recovered and the mean concentration of IgE determined.
Serum levels of IgE are determined and IgE levels are shown to be inhibited in a dose dependent manner.
(§1) ELISA (enzyme linked immunosorbant assay) measurements of IgE are as follows. About 5 μg of B1E3 antibody in 100 μl borate buffered saline (pH8.5) is added to wells of a NuncImmulon II 96 well plate (DiRuscio & Assoc., St. Louis, Mo.) at 37° C. for 90 minutes. The non-bound antibody is removed by flicking the plate. Unreacted sites on the plastic plate are blocked by adding about 200 μl of a 2% solution of newborn bovine serum (NBS) in PBS at 37° C. for 60 minutes. The standard IgE (or an unknown murine serum sample) is diluted to between about 4 ng/ml-256 ng/ml in Hanks-HS (20 mM Hepes, 2% NBS in Hanks Balanced Salt Solution, Gibco, Grand Island, N.Y.) or to 1/200 to 1/1000 in Hanks-HS respectively. 100 μl of standard (or unknown dilutions) are added in triplicate to the wells of the plate and allowed to absorb to B1E3 antibody at about 37° C. for 2-4 hours. The solution is removed by flicking the plate and each well is washed with about 0.5 ml 0.05% Tween 20-PBS 5 times. About 100 μl of biotinylated R1E4, called the primary antibody, diluted to 200 ng/ml is added to all wells and incubated at about 4° C. overnight. The solution is removed by flicking the plate and washed 5 times as described above. The developing reagent (Avidin and biotin-horse radish peroxidase) is incubated in 2% NBS in PBS at ambient temperature for 30 minutes, according to manufacturer's specifications (Vector Laboratories, Burlingame, Calif.). About 100 μl of developing reagent is added to each well and incubated at ambient temperature for 30 minutes. Colorimetric substrate for the developing reagent (ABTS peroxidase substrate system, KPL, Gaithersburg, Md.) is prepared by mixing equal volumes of solutions A and B and incubating at ambient temperature for 60 minutes. The developing reagent solution is removed by flicking the plate and washed 5 times as described above. About 100 μl of the mixture of substrates is added to each well and incubated at ambient temperature for 60 minutes. The optical density of each well is determined on a BioTek ELISA reader (Biotek Instruments, Inc., Burlington, Vermont) and the absorbance data transferred electronically to a DEC VAX mainframe computer. A standard curve is fitted to the IgE standard optical densities using straight line, linear regression statistical fits. IgE in the unknown serum samples is determined by comparing the optical density of the unknown to the standard curve and multiplying that number by the dilution of serum used in the assay.
Stimulation of a transient serum IgE response in mouse with two monoclonal antibodies directed against IgD is carried out as follows.
Mouse hybridoma cells expressing either FF1-4D5 antibody or H∂Al antibody are thawed, established in culture, and incubated in CB6 F1 female mice as an ascites tumor and each immunoglobulin is purified from the ascites fluid as described above. […]

IgE [3] = assay: ED50 for inhibition of IgE calculated from the examples; type: in vivo, mouse; conditions: for ED50 IgE Inhibition: dose to achieve 50% inhibition of IgE
Description: From the data in the above examples, the effective dose of each prostaglandin to achieve 50% inhibition of IgE (ED50) was calculated.

[4] = rat, in vivo
Description: (§2) Briefly, adult Charles River male rats weighing 210-230 g were individually housed and fasted with water available ad libitum for 24 hours prior to the test. The animals (N=6-12) received logarithmically graded prostaglandin doses orally. Immediately after administration, the animals were returned to their cages, and diarrhea, if any, was assessed on an all or none basis for 8 hours after drug treatment. The ED50 and relative potency values were calculated by the logistic method of Berkson.

[5] = Diarrheal effects in rats; conditions: rat, in vivo, po
Description: as §2

IgE [6] = assay: In vitro IgE inhibition; type: cell-based
[7] = J. Pene et al., 1988; cited from earlier work
IgE [8] = assay: Inhibition of de novo IgE synthesis after oral (intragastric) administration; type: in vivo, mouse (Balb/c female); conditions: for IgE ± SD: 20 μg intragastric TID days 3 and 4
Description: as §1
Three groups of 4 Balb/c female mice per group are injected with both 100 μg FF1-4D5 antibody and 100 μg H∂A1 antibody (Groups B, C, and D). Another group of 4 Balb/c female mice is injected with PBS alone, unstimulated control Group A. One of the stimulated group were not given any prostaglandin control Group B. On day 3 and 4, individual groups receive an intragastric feeding TID of 0.25 ml of 20 μg of (±) methyl 11α,16-dihydroxy-16-methyl-9-oxoprosta-5Z,13E-dien-1-oate (Group C) or 20 μg of prostaglandin E2 (Group D) dissolved in PBS.

[9] = day -1 baseline before treatment
[10] = Table 9, 20 μg IP days 3 and 4, day 8 (control 3539)
[11] = Table 9, 20 μg IP days 3 and 4, day -1 baseline before treatment

With `CCCCC(O)(CC)C/C=C/[C@H]1[C@H](O)CC(=O)[C@@H]1C/C=C\CCCC(=O)OC` (mixture of isomers) [(±) methyl 11α,16-dihydroxy-16-ethyl-9-oxoprosta-5Z,13E-dien-1-oate] the “cell surface density and distribution” value [1] was “identical cell surface density and distribution as the control group”, the “IgM synthesis” value (IgM; Table 6) was “IgM synthesis is not affected” and the “IgM ± SD” value (IgM; day 7 (PBS 1488)) was 1858 ± 107 µg/mL. The “IgM ± SD” value (IgM; day 8 (PBS 1690)) was 2569 ± 803 µg/mL, the “IgM ± SD” value (IgM; day 9 (PBS 1396)) was 2104 ± 276 µg/mL and the “IgM ± SD” value (IgM; day 11 (PBS 548)) was 725 ± 199 µg/mL. The “IgM ± SD” value (IgM; [9]) was 272 ± 19 µg/mL, the “IgE production” value (IgE [2]; 20 μg IP 3x daily days 3 and 4, Table 6) was “IgE production is fully inhibited” and the “IgE ± SD” value (IgE [2]; Table 6, 20 μg IP 3x daily days 3 and 4, day 7 (PBS 4545)) was 847 ± 67 ng/mL. The “IgE ± SD” value (IgE [2]; Table 6, 20 μg IP 3x daily days 3 and 4, day 8 (PBS 11398)) was 1264 ± 173 ng/mL, the “IgE ± SD” value (IgE [2]; Table 6, 20 μg IP 3x daily days 3 and 4, day 9 (PBS 7114)) was 1064 ± 106 ng/mL and the “IgE ± SD” value (IgE [2]; Table 6, 20 μg IP 3x daily days 3 and 4, day 11 (PBS 1064)) was 808 ± 16 ng/mL. For the same compound, the “IgE ± SD” value (IgE [2]; Table 6, 20 μg IP 3x daily days 3 and 4, day -1 baseline before treatment) was < 800 ng/mL.

For `CCCCCCC(C)(O)C/C=C/[C@H]1[C@H](O)CC(=O)[C@@H]1CCCCCCC(=O)OC` (mixture of isomers) [(±) methyl-20-ethyl-11α,16-dihydroxy-16-methyl-9-oxoprost-13E-en-1-oate], the “ED50 IgE Inhibition” value (IgE [3]) was 1.0 μg/mouse/TID, the “diarrhea side effects” value [4] was “essentially free of detrimental diarrhea side effects” and the “diarrhea side-effect” value ([4]; po) was “essentially free of the undesirable diarrhea side-effect”. For the same compound, the “de novo IgE synthesis” value (IgE [2]; 20 μg days 3 and 4, Example 24) was “inhibits de novo IgE synthesis”, the “IgE ± SD” value (IgE [2]; Table 13, 20 μg days 3 and 4, day 8 (control 3653)) was < 800 ng/mL and the “IgE inhibition” value (IgE [2]; summary statement) was “excellent IgE inhibition”. The TD50 at 8 h [5] was 2.7 mg/kg.

For `CCCCC[C@H](O)/C=C/[C@H]1[C@H](O)CC(=O)[C@@H]1CCCCCCC(=O)O` [prostaglandin E1, reference compound], the “inhibition of IgE in vitro” value (IgE [6]) was “exhibit inhibition of IgE in vitro”, the “inhibition of de novo IgE synthesis in vivo” value (IgE [2]; 20 μg days 3 and 4) was “lack of inhibition” and the “IgE ± SD” value (IgE [2]; [10]) was 2958 ± 717 ng/mL. For the same compound, the “IgE ± SD” value (IgE [2]; [11]) was < 800 ng/mL and the “inhibition of IgE in vivo” value (IgE [2]; summary statement) was “only low inhibition in vivo”.

In the case of `CCCCC[C@H](O)/C=C/[C@H]1[C@H](O)CC(=O)[C@@H]1C/C=C\CCCC(=O)O` [prostaglandin E2], the “ED50 IgE Inhibition” value (IgE [3]) is listed as > 45.0 μg/mouse/TID, the “dosage to achieve 50% inhibition of IgE” value (IgE [3]; text of Example 28) is listed as “greater than 45 μg/mouse” and the “immunosuppressive effects in vitro” value [7] is listed as “Immunosuppressive effects of prostaglandins in vitro has been demonstrated”. For the same compound, the “inhibition of IgE in vitro” value (IgE [6]) was “exhibit inhibition of IgE in vitro”, the “inhibition of de novo IgE synthesis in vivo” value (IgE [2]; 20 μg days 3 and 4) was “lack of inhibition” and the “IgE ± SD” value (IgE [2]; [10]) was 3340 ± 384 ng/mL. The “IgE ± SD” value (IgE [2]; [11]) was 897 ± 194 ng/mL, the “inhibition of IgE in vivo” value (IgE [2]; summary statement) was “only low inhibition in vivo” and the “inhibition of de novo IgE synthesis after oral administration” value (IgE [8]; 20 μg intragastric TID) was “ineffective; also recorded: inhibits IgE synthesis slightly, if at all”. The “IgE ± SD” value (IgE [8]; day 8 (stimulated control 5792, unstimulated 1015)) was 3724 ± 1361 ng/mL, the “IgE ± SD” value (IgE [8]; day 10 (stimulated control 1498)) was 1496 ± 219 ng/mL and the “IgE ± SD” value (IgE [8]; [9]) was 1094 ± 107 ng/mL.
